Measured values from US20240279687A1, “PEPTIDE NUCLEIC ACIDS FOR SPATIOTEMPORAL CONTROL OF CRISPR-CAS BINDING” (Yale University, priority 2021, published 2024).

Assays:
dCas9-p300 / MYOD1 sgRNA [1] = target: T1, dCas9-p300 / MYOD1 sgRNA (UniProt Q09472+Q99ZW2, D10A/H840A); assay: dCas9-p300 MYOD1 expression in stable K562 cells, RT-qPCR; format: cell-based, human; conditions: 250 pmol PNA
T1 construct: P2A-PuroR (C)
Procedure: Stable K562-pLV-dCas9-p300 line was established from lentivirus generated from pLV-dCas9-p300-P2A-PuroR plasmid (Addgene: #83889) and Invitrogen Virapower packaging plasmids in 293FT cells (Invitrogen, R70007) and puromycin selection (2 μg/mL, Gibco). Lines were further transduced with lentivirus similarly generated with pLV-U6-UbC-eGFP-P2A-Bsr plasmids (Addgene: #83925) containing MYOD promoter targeted sgRNA sequences with blasticidin selection (5 μg/mL, Gibco, A1113903, Table 4).
6×10^6 stable dCas9-p300/MYOD1 sgRNA expressing K562 cells (Addgene #83889, Addgene #83925), were nucleofected with 250 pmol of specified PNA (non-targeting BFP or POU5F1) using a Lonza 4D nucleofector. At each specified time point 500 μL of cells were removed from each condition flask, spun down, and frozen. […] Expression relative to the untreated parent K562 line was recorded as fold-change and calculated using the ΔΔCT method. […]
For RNA extractions 0.5×10^6 K562 cells were spun down, washed once with PBS, homogenized using QIAshredder columns (QIAGEN 79656) and processed using QIAGEN RNeasy mini kits (74106) before eluting in 50 μL of water. […] Expression relative to the untreated K562 parent line was recorded as fold-change and calculated from averaged CT values using the ΔΔCT method.

dCas9-p300 / MYOD1 sgRNA [2] = target: T1, dCas9-p300 / MYOD1 sgRNA; assay: ChIP-qPCR of H3K27ac occupancy at the MYOD1 promoter region; format: cell-based, human; conditions: 24 and 48 hours after PNA treatment (250 pmol), subsequent increase at 240 hours
Procedure: K562 cells (6×10^6 cells) were diluted to 0.4×10^6 cells/mL and cross-linked with a final concentration of 1% formaldehyde (Sigma-Aldrich, 252549) for each IP. Chromatin was prepared and sheared according to manufacturer protocol using SimpleChIP Enzymatic Chromatin IP Kit (Cell Signaling, #9003) and QSONICA Q800R3 sonicator for nuclear lysis. For each condition, 10 μg of chromatin was incubated with 3 μg of H3K27ac antibody (abcam ab4729) rotating overnight at 4° C. Chromatin was incubated with 30 μL of protein G magnetic beads (Cell Signaling, #70024) and washed, eluted, reverse cross-linked, and purified according to manufacturer protocol. ChIP-qPCR reactions were conducted in technical triplicate for 2% input and IP samples using a StepOnePLUS Real-Time PCR System (Applied Biosystems), SimpleChIP Universal qPCR Mastermix (Cell Signaling, #88989), and MYOD1 target specific primers (Table 8). Percent occupancy values were calculated by percent input method from 2% input samples for each replicate.

For “KKK-GCACGCCCTTTCCAAACCT-KKK (Three lysine residues flank each end, further chemistry not given here) [MYOD1 p300 PNA]”, the “time by which epigenetic-mediated MYOD1 gene upregulation was driven down” value (dCas9-p300 / MYOD1 sgRNA [1]) was no more than 24 h, the “time by which expression returned to the fully upregulated state” value (dCas9-p300 / MYOD1 sgRNA [1]) was no more than 168 h and the “H3K27ac occupancy at the MYOD1 promoter region” value (dCas9-p300 / MYOD1 sgRNA [2]) was “significant decrease”.
